Reference: US20060063789A1, “Aminobenzamide derivatives as glycogen synthase kinase 3 beta inhibitors” (priority 2001, published 2006)

How the values were obtained:
[1] = molecular target: GSK3β (Homo sapiens, UniProt P49841); assay: GSK3beta assay (SPA, biotinylated phosphorylated CREB peptide, ATP-P33); type: biochemical; conditions: −log IC50 (M); 19 nM GSK3β, 5 μM biotinylated phosphorylated CREB peptide, 1 μM ATP, 25° C., one hour
Experimental: GSK3beta assays were performed at 25° C. in a 100 μl reaction volume of 25 mM Tris (pH 7.4) containing 10 mM MgCl2, 1 mM DTT, 0.1 mg/ml BSA, 5% glycerol and containing 19 nM GSK3β, 5 μM biotinylated phosphorylated CREB peptide, 1 μM ATP, 2 nM ATP-P^33 and a suitable amount of a test compound of formula (I) or (I′). After one hour, the reaction was terminated by adding 70 μl of Stop mix (1 mM ATP, 18 mg/ml streptavidin coated PVT SPA bead pH 11.0). The beads to which the phosphorylated CREB peptide is attached were allowed to settle for 30 minutes and the radioactivity of the beads was counted in a microtiterplate scintillation counter and compared with the results obtained in a control experiment (without the presence of a test compound) in order to determine the percentage of GSK3β inhibition. The IC50 value, i.e. the concentration (M) of the test compound at which 50 % of GSK3β is inhibited, was calculated from the dose response curve obtained by performing the above-described GSK3β assay in the presence of different amounts of the test compound.
Table 4 lists pIC50 values (−log IC50 (M)) obtained in the above-described test for the present compounds.

Sequence of GSK3β (P49841 whole entry, species assumed): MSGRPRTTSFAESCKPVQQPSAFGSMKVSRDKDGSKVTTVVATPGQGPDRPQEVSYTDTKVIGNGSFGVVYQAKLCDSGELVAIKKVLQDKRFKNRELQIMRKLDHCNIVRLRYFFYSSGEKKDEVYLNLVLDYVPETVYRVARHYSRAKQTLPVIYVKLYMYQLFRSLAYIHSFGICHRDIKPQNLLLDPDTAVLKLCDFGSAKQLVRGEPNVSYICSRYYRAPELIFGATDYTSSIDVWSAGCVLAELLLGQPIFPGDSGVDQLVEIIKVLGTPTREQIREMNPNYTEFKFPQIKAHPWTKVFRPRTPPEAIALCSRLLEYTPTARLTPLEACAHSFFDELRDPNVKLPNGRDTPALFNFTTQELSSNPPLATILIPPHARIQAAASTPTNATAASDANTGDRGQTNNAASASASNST

Compound	IC50 [1]	melting point
NC(=O)c1cccc(Nc2ncc([N+](=O)[O-])c(NCc3ccccc3)n2)c1 [Compound 1]	1.82e-07 M	
NC(=O)c1cccc(Nc2ncc(Br)c(OCc3ccccc3)n2)c1 [Compound 4]	5.25e-08 M	216 to 217 °C
N#Cc1cnc(Nc2cccc(C(N)=O)c2)nc1OCc1ccccc1 [Compound 9, 3-[[5-cyano-4-(phenylmethoxy)-2-pyrimidinyl]amino]-benzamide]	1.82e-08 M	260 to 261 °C
NC(=O)c1cccc(Nc2nccc(OCc3ccccc3)n2)c1 [Compound 17]	1.41e-06 M	
NC(=O)c1ccc(Nc2ncc(Br)c(OCc3ccccc3)n2)cc1 [Compound 22, 4-[[5-bromo-4-(phenylmethoxy)-2-pyrimidinyl]amino]-benzamide]	6.46e-08 M	
N#Cc1cnc(Nc2ccc(C(N)=O)cc2)nc1OCc1ccccc1 [Compound 23, 4-[[5-cyano-4-(phenylmethoxy)-2-pyrimidinyl]amino]-benzamide]	2.19e-08 M	
